Test system: statin-treated patients with a history of atherosclerosis or diabetes
Assay: REDUCE-IT Example 3: total (first and subsequent) ischemic events (negative binomial, Andersen-Gill, Wei-Lin-Weissfeld Li-Lagakos, joint frailty; reduced and full dataset)
Format: in vivo, human
Set-up: Relative risk reduction in total (first and subsequent) ischemic events for the primary composite endpoint / First events reduced by / Second events reduced by / Third events reduced by / Fourth or more events reduced by: concentration or dose not given beside the values
Description: The following study was a multi-center, placebo-controlled clinical trial the details of which are described above in Example 1, the REDUCE-IT design. […] The main outcomes were total primary composite endpoint events defined as cardiovascular death, nonfatal myocardial infarction, nonfatal stroke, coronary revascularization, or hospitalization for unstable angina and total key secondary composite endpoint events defined as cardiovascular death, nonfatal myocardial infarction, or nonfatal stroke. In the context of this study, total events refer to any first event as well as any subsequent event. Differences in total events were determined using other statistical models, including Andersen-Gill, Wei-Lin-Weisfeld (Li and Lagakos), both pre-specified, and a post hoc and joint-frailty analysis.
For the present prespecified analysis, the primary outcome was the total of first plus subsequent ischemic events consisting of the composite of cardiovascular death, nonfatal myocardial infarction, nonfatal stroke, coronary revascularization, or hospitalization for unstable angina. […] Exploratory analyses of the total of first and subsequent events were also performed for the key secondary composite endpoint.
Baseline characteristics were compared between treatment groups using the chi-squared test for categorical variables and the Wilcoxon rank sum test for continuous variables. There are several methods for analyzing first and subsequent (recurrent) event data. As a pre-specified statistical method, a negative binomial regression was used to calculate rates and rate ratios for total cardiovascular events, which accounts for the variability in each patient's risk of events. As pre-specified supportive analyses, the modified Wei-Lin-Weissfeld method (Li and Lagakos modification) was used to calculate hazard ratios (HRs) for the time to the first event, second event, or third event. An additional pre-specified analysis, the Andersen-Gill model using a Cox proportional-hazard with the counting-process formulation was performed to model the total events. In addition, in order to account for informative censoring due to cardiovascular death, the HR for total non-fatal events was calculated using a joint frailty model (See Rondeau V. Joint frailty models for recurring events and death using maximum penalized likelihood estimation: application on cancer events. Biostatistics. 2007; 8:708-21). The joint frailty model simultaneously estimates hazard functions for non-fatal and fatal CV events and takes into account the fact that patients who are prone to have nonfatal events have an elevated risk of a cardiovascular death. The application of the joint frailty model used a gamma distribution for the frailty term.
Statistical analyses using the full adjudicated endpoint events dataset without exclusions using this bundling approach were also determined.

[1] = Andersen-Gill (I), full dataset, adjusted for stratification factors, vs placebo
[2] = Andersen-Gill (I), full dataset, vs placebo
[3] = Andersen-Gill (I), reduced dataset, adjusted for stratification factors, vs placebo
[4] = Andersen-Gill (I), reduced dataset, vs placebo
[5] = Andersen-Gill (II), full dataset, adjusted for stratification factors, vs placebo
[6] = Andersen-Gill (II), full dataset, vs placebo
[7] = Andersen-Gill (II), reduced dataset, adjusted for stratification factors, vs placebo
[8] = Andersen-Gill (II), reduced dataset, vs placebo
[9] = Wei-Lin-Weissfeld model (Li and Lagakos)
[10] = modified WLW, full dataset, adjusted for stratification factors, vs placebo
[11] = modified WLW, full dataset, vs placebo
[12] = negative binomial, full dataset, adjusted for stratification factors, vs placebo
[13] = negative binomial, full dataset, vs placebo
[14] = negative binomial, reduced dataset, adjusted for stratification factors, vs placebo
[15] = negative binomial, reduced dataset, vs placebo
[16] = number of events, icosapent ethyl arm N = 4089, full dataset
[17] = number of events, after reduction
[18] = number of events, multiple endpoints in a single calendar day handled as a single event
[19] = share of overall events in the category, after reduction

For `CC/C=C\C/C=C\C/C=C\C/C=C\C/C=C\CCCC(=O)OCC` [Icosapent Ethyl, eicosapentaenoic acid ethyl ester], the “Adjusted HR, key secondary composite endpoint” value [1] was 0.71, the “Adjusted HR, primary composite endpoint” value [1] was 0.68 and the “Unadjusted HR, key secondary composite endpoint” value [2] was 0.71. The “Unadjusted HR, primary composite endpoint” value [2] was 0.68, the “Adjusted HR, total key secondary composite endpoint events” value [3] was 0.72 and the “Adjusted HR, total primary composite endpoint events” value [3] was 0.69. The “Unadjusted HR, total key secondary composite endpoint events” value [4] was 0.72, the “Unadjusted HR, total primary composite endpoint events” value [4] was 0.69 and the “Adjusted HR, key secondary composite endpoint” value [5] was 0.71. The “Adjusted HR, primary composite endpoint” value [5] was 0.68, the “Unadjusted HR, key secondary composite endpoint” value [6] was 0.71 and the “Unadjusted HR, primary composite endpoint” value [6] was 0.68. The “Adjusted HR, total key secondary composite endpoint events” value [7] was 0.72, the “Adjusted HR, total primary composite endpoint events” value [7] was 0.69 and the “Unadjusted HR, total key secondary composite endpoint events” value [8] was 0.72. For the same compound, the “Unadjusted HR, total primary composite endpoint events” value [8] was 0.69, the “Cardiovascular deaths prevented per 1000 patients treated for five years” value (FIG. 38) was 12 and the “Coronary revascularizations prevented per 1000 patients treated for five years” value (FIG. 38) was 76. For the same compound, the “Episodes of hospitalization for unstable angina prevented per 1000 patients treated for five years” value (FIG. 38) was 16, the “Myocardial infarctions prevented per 1000 patients treated for five years” value (FIG. 38) was 42 and the “Strokes prevented per 1000 patients treated for five years” value (FIG. 38) was 14. The “First occurrence of primary composite endpoint: HR vs placebo” value [9] was 0.75, the “Second occurrence of primary composite endpoint: HR vs placebo” value [9] was 0.68 and the “First events reduced by” value (in vivo) was 25%. The “Fourth or more events reduced by” value (in vivo) was 48%, the “Relative risk reduction in total (first and subsequent) ischemic events for the primary composite endpoint” value (in vivo) was 30% and the “Second events reduced by” value (in vivo) was 32%. The “Third events reduced by” value (in vivo) was 31%, the “Adjusted HR, key secondary composite endpoint, first event” value [10] was 0.74 and the “Adjusted HR, key secondary composite endpoint, second event” value [10] was 0.75. The “Adjusted HR, key secondary composite endpoint, third event” value [10] was 0.79, the “Adjusted HR, primary composite endpoint, first event” value [10] was 0.75 and the “Adjusted HR, primary composite endpoint, second event” value [10] was 0.68. For the same compound, the “Adjusted HR, primary composite endpoint, third event” value [10] was 0.70, the “Unadjusted HR, key secondary composite endpoint, first event” value [11] was 0.74 and the “Unadjusted HR, key secondary composite endpoint, second event” value [11] was 0.75. The “Unadjusted HR, key secondary composite endpoint, third event” value [11] was 0.79, the “Unadjusted HR, primary composite endpoint, first event” value [11] was 0.76 and the “Unadjusted HR, primary composite endpoint, second event” value [11] was 0.69. The “Unadjusted HR, primary composite endpoint, third event” value [11] was 0.70, the “Total key secondary endpoint events: rate ratio (RR) vs placebo” value (negative binomial model) was 0.72 and the “Total primary endpoint events: rate ratio (RR) vs placebo” value (negative binomial model) was 0.70. For the same compound, the “Adjusted RR, key secondary composite endpoint” value [12] was 0.71, the “Adjusted RR, primary composite endpoint” value [12] was 0.69 and the “Unadjusted RR, key secondary composite endpoint” value [13] was 0.71. For the same compound, the “Unadjusted RR, primary composite endpoint” value [13] was 0.67, the “Adjusted RR, total key secondary composite endpoint events” value [14] was 0.72 and the “Adjusted RR, total primary composite endpoint events” value [14] was 0.70. For the same compound, the “Unadjusted RR, total key secondary composite endpoint events” value [15] was 0.71, the “Unadjusted RR, total primary composite endpoint events” value [15] was 0.68 and the “Total events before reduction, key secondary endpoint” value [16] was 590 n. The “Total events before reduction, primary endpoint” value [16] was 1185 n, the “Fatal events, key secondary endpoint” value [17] was 174 n and the “Fatal events, primary endpoint” value [17] was 174 n. The “Non-fatal events, key secondary endpoint” value [17] was 384 n, the “Non-fatal events, primary endpoint” value [17] was 902 n and the “Total events after reduction, key secondary endpoint” value [18] was 558 n. The “Total events after reduction, primary endpoint” value [18] was 1076 n, the “Fatal events, key secondary endpoint” value [19] was 45.0% and the “Fatal events, primary endpoint” value [19] was 45.0%. For the same compound, the “Total events after reduction, primary endpoint” value [19] was 41.0% and the “Total events before reduction, key secondary endpoint” value (share of overall events in the category, icosapent ethyl arm N = 4089) was 42.0%.
